Patent US11920157B2, “Applications of butylidenephthalide” (NATIONAL DONG HWA UNIVERSITY, priority 2016, dated 2024)

Key:
UCP1 = UCP1 gene (RT-PCR) and UCP1 protein (Western blot) expression in adipose cells; format: cell-based; details: 7 days
Protocol: (§1) The adipose cells provided by Example B1-2 were divided into seven groups and independently subjected to the following treatments:
(1) Control group: cells were cultivated in a conditional medium provided by A1 for 7 days;
(§2) (3) BP-10 group: cells were cultivated in a conditional medium that was externally added with butylidenephthalide (BP) (to a final concentration of 10 μg/mL) for 7 days;
(5) Tofacitinib group: cells were cultivated in a conditional medium that was externally added with tofacitinib (to a final concentration of 2 μM) for 7 days (tofacitinib was purchased from UNI-ONWARD Corp. (Taiwan); product number: PZ0017);
(6) Adenosine group: cells were cultivated in a conditional medium that was externally added with adenosine (to a final concentration of 1 μM) for 7 days (adenosine was purchased from UNI-ONWARD Corp. (Taiwan); product number: A4036); and
(7) Proanthocyanidin group: cells were cultivated in a conditional medium that was externally added with proanthocyanidin (to a final concentration of 10 μM) for 7 days (adenosine was purchased from Hong Jing Co., Ltd. (Taiwan); product number: sc-344976).
The cells in each group provided by Example B1-3 were separately collected, and then the total RNA and protein of the cells were individually extracted for the following experimentation.
The total RNA was subjected to reverse transcription to provide cDNA, and then the expression of UCP1 gene of the cells in each group was analyzed by reverse transcription polymerase chain reaction (RT-PCR). The results are shown in FIG. 4A, wherein FABP4 gene was a biomarker of mature adipose cells, and thus, it was used as an internal control of adipose cells in this experimentation. The actin gene was used as an internal control of all the cells. Furthermore, the expression of UCP1 protein of the cells in each group was analyzed by Western blot. The results are shown in FIG. 4B, wherein FABP4 protein was used as an internal control of adipose cells. The actin was used as an internal control of all the cells.

adipose stem cells = experiment: Production of adipose droplets in adipose cells differentiated from adipose stem cells (microscope morphology, oil red stain); format: cell-based; details: 7 days
Protocol: A DMEM medium (brand name: GIBCO; product number: 11965092) was used as a basic medium, and rosiglitazone (concentration: 0.5 μM, solvent: dimethyl sulfoxide (DMSO)), insulin (concentration: 170 nM, solvent: culture medium), 3-isobutyl-1-methylxanthine (IBMX; concentration: 0.5 μM, solvent: DMSO) and dexamethasone (concentration: 1 μM, solvent: DMSO) were externally added therein to provide a conditional medium.
The adipose stem cells (ADSCs) were cultivated in a DMEM/F12 medium at 37° C., 5% CO2 for 5 days. […] The results are shown in FIG. 1 (i.e., adipose stem cells (undifferentiated)).
The aforementioned pre-cultivated adipose stem cells provided by Example B1-1 were cultivated in a conditional medium provided by Example A1 at 37° C., 5% CO2 for 7 days to differentiate into adipose cells. […] The results are also shown in FIG. 1 (i.e., adipose cells (differentiated)).
as §1
(2) BP-2 group: cells were cultivated in a conditional medium that was externally added with butylidenephthalide (BP) (to a final concentration of 2 μg/mL) for 7 days (butylidenephthalide (BP) was purchased from ECHO CHEMICAL Co., Ltd. (Taiwan); product number: A10353);
as §2
(4) BP-50 group: cells were cultivated in a conditional medium that was externally added with butylidenephthalide (BP) (to a final concentration of 50 μg/mL) for 7 days;
First, the cell morphology of each group in photos taken in Examples B1-1, B1-2 and B1-3 was observed.
Thereafter, the adipose droplets of adipose stem cells (undifferentiated) provided by Example B1-1, adipose cells (differentiated) provided by Example B1-2 and adipose cells in “BP-2 group”, “BP-10 group” and “BP-50 group” provided by Example B1-3 were stained by oil red dye, and the morphology thereof was taken photos and recorded. Then, the number of adipose droplets of adipose cells in each group was quantified.

C57BL/6 mice [1] = experiment: Accumulation of white fat: organ appearance and weight of subcutaneous and visceral adipose tissue of high fat diet mice; format: in vivo
Protocol: (§3) The C57BL/6 mice (purchased from National Laboratory Animal Center, Taiwan) were bred in Laboratory Animal Center of China Medical University, Taiwan (conditions: 3 mice were bred per cage; the temperature of the breeding room ranged from 20° C. to 24° C., and the relative humidity ranged from 50% to 70%; the light cycle was 12 hours; sufficient water and normal diet were supplied daily) until they were 4 weeks old. Then, the mice were randomly divided into seven groups (six mice per group), and individually subjected to the following treatment and experimentation:
(§4) (3) Oral administration of butylidenephthalide (BP) group (i.e., “HFD+BP” group): the mice were continuously fed with a high fat diet, and then simultaneously administered with butylidenephthalide (BP) by oral route at the beginning of the ninth week (dosage amount: every day, 250 mg/kg-body weight) until they were 18 weeks old.
(§5) (4) Cell infusion of adipose stem cells group (i.e., “HFD+ADSC” group): the mice were continuously fed with a high fat diet, and then simultaneously administered with adipose stem cells by intravenous injection at the beginning of the eleventh week (dosage amount: every two weeks, 4×10^5 cells suspended in 100˜150 μL of normal saline) until they were 18 weeks old (four injections in total).
(5) Oral administration of butylidenephthalide (BP) in combination with cell infusion of adipose stem cells group (i.e., “HFD+BP+ADSC” group): the mice were continuously fed with a high fat diet, then simultaneously administered with butylidenephthalide (BP) by oral route at the beginning of the ninth week (dosage amount: every day, 250 mg/kg-body weight), and further simultaneously administered with adipose stem cells by intravenous injection at the beginning of the eleventh week (dosage amount: every two weeks, 4×10^5 cells suspended in 100˜150 μL of normal saline) until they were 18 weeks old (four injections in total). […]
B2-3. […] The weight of the subcutaneous adipose tissue and visceral adipose tissue of mice were measured and recorded, and the collected organs were kept at a temperature of −80° C. for following experimentation and analysis.
To understand whether butylidenephthalide (BP) can alleviate the accumulation of white fat or not, the photos of appearances of the liver, heart, kidney, subcutaneous adipose tissue and visceral adipose tissue of mice in each group recorded in Example B2-3 are shown in FIG. 6A. The weight of subcutaneous adipose tissue and visceral adipose tissue of mice in each group recorded in Example B2-3 were respectively averaged.

adipose cells = experiment: Oxygen consumption rate and spare respiratory capacity of adipose cells (XF24 extracellular flux analyser); format: cell-based; details: 7 days, vs differentiated adipose cells not treated by BP
Excerpt: As described above, different from white adipose cells, the morphology of brown-like adipose cells/brown adipose cells is characterized by (i) containing numerous adipose droplets, (ii) containing a large number of mitochondria and (iii) having highly expressed uncoupling protein 1 (UCP1). […] Therefore, the number and proportion of brown-like adipose cells/brown adipose cells can be conceived by observing the number of adipose droplets in the cells, the oxygen consumption rate of adipose cells and the gene and protein expressions of UCP1.
After a medium was replaced with a fresh medium, the cells were continuously cultivated at 37° C. for 1 hour. Then, the mitochondrial biosynthesis of cells in each group was separately interfered with 25 μM oligomycin, 0.5 μM FCCP and 5 μM rotenone/antimycin A sequentially, and was continuously detected by a XF24 extracellular flux analyser (purchased from Seahorse Bioscience) prior to and during conduction of the aforementioned interference. The oxygen tension and acidification degree in the culture medium were detected by an adjusted probe to further calculate the oxygen consumption rate and spare respiratory capacity. The results of oxygen consumption rate are shown in FIG. 3A, and the results of basic oxygen consumption rate and spare respiratory capacity are shown in FIG. 3B.

[2] = Change of mouse weight in high fat diet mice; format: in vivo; details: vs HFD group
Protocol: as §3
(§6) (3) Oral administration of butylidenephthalide (BP) group (i.e., “HFD+BP” group): the mice were continuously fed with a high fat diet, and then simultaneously administered with butylidenephthalide (BP) by oral route at the beginning of the ninth week (dosage amount: every day, 250 mg/kg-body weight) until they were 18 weeks old. […]
B2-1. In the preparation process of above Example A2, the weight change of mice was recorded every week until they were 18 weeks old.
To understand whether butylidenephthalide (BP) is effective in inhibiting weight gain or not, the average value of the recorded weights of mice in each group of Example B2-1 was obtained weekly.

C57BL/6 mice [3] = experiment: Contents of glucose, triglycerides and total cholesterol in blood of high fat diet mice; format: in vivo
Protocol: as §3, §4, §5
(5) Oral administration of butylidenephthalide (BP) in combination with cell infusion of adipose stem cells group (i.e., “HFD+BP+ADSC” group): the mice were continuously fed with a high fat diet, then simultaneously administered with butylidenephthalide (BP) by oral route at the beginning of the ninth week (dosage amount: every day, 250 mg/kg-body weight), and further simultaneously administered with adipose stem cells by intravenous injection at the beginning of the eleventh week (dosage amount: every two weeks, 4×10^5 cells suspended in 100˜150 μL of normal saline) until they were 18 weeks old (four injections in total).
(6) Cell infusion of brown-like adipose cells group (i.e., “HFD+BLC” group): the mice were fed with a high fat diet, and then simultaneously administered with brown-like adipose cells provided by Example 1 by intravenous injection at the beginning of the eleventh week (dosage amount: every two weeks, 4×10^5 cells suspended in 100˜150 μL of normal saline) until they were 18 weeks old (four injections in total).
(7) Oral administration of butylidenephthalide (BP) in combination with cell infusion of brown-like adipose cells group (i.e., “HFD+BP+BLC” group): the mice were continuously fed with a high fat diet, then simultaneously administered with butylidenephthalide (BP) by oral route (dosage amount: every day, 250 mg/kg-body weight) at the beginning of the ninth week, and further simultaneously administered with brown-like adipose cells provided by Example 1 by intravenous injection at the beginning of the eleventh week (dosage amount: every two weeks, 4×10^5 cells suspended in 100˜150 μL of normal saline) until they were 18 weeks old (four injections in total).
B2-2. After Example B2-1 was accomplished, the mice was subjected to fast for 12 hours, and then the blood of mice was collected in a serum tube by cardic blood collection. The collected blood was stand for 30 minutes, and then subjected to centrifuge at 3000 rpm, 4° C. for 10 minutes. The supernatant thus provided was collected (i.e., blood sample) and kept at a temperature of 4° C. for following experimentation and analysis.
To understand whether butylidenephthalide (BP) is effective in reducing the contents of glucose, triglycerides and total cholesterol in blood or not, the blood sample of mice in each group provided by Example B2-2 was detected by a SYSMEX K-1000 and TOSHIBA TBA200FA automatic blood analyzer to analyze the contents of glucose, triglycerides and total cholesterol in blood of mice. The results of each group were averaged. Based on the result of “HFD” group, the relative contents of glucose, triglycerides and total cholesterol of each group were calculated.

C57BL/6 mice [4] = experiment: Fat browning in subcutaneous and visceral adipose tissue slices of high fat diet mice (H&E stain); format: in vivo; details: 18 weeks old, BP oral 250 mg/kg-body weight daily from week 9, cells i.v. 4×10^5 every two weeks from week 11, vs HFD group
Protocol: as §3, §6
B2-3. […] The weight of the subcutaneous adipose tissue and visceral adipose tissue of mice were measured and recorded, and the collected organs were kept at a temperature of −80° C. for following experimentation and analysis. […]

[5] = 18 weeks old, BP oral 250 mg/kg-body weight daily from week 9, cells i.v. 4×10^5 every two weeks from week 11
[6] = based on the result of HFD group (100)
[7] = high fat diet mice, 18 weeks old, fasted 12 hours, BP oral 250 mg/kg-body weight daily, cells i.v. 4×10^5 every two weeks
[8] = high fat diet mice, vs HFD group

With `CCCC=C1OC(=O)c2ccccc21` [BP, butylidenephthalide] the “increments of UCP1 gene and UCP1 protein compared with known drugs” value (UCP1; BP 10 μg/mL vs tofacitinib 2 μM, adenosine 1 μM, proanthocyanidin 10 μM) was “higher than that of tofacitinib group, adenosine group and proanthocyanidin group”, the “expression of UCP1 gene (RT-PCR, FIG. 4A)” value (UCP1; BP 10 μg/mL, vs control group) was “significantly increased” and the “expression of UCP1 protein (Western blot, FIG. 4B)” value (UCP1; BP 10 μg/mL, vs control group) was “significantly increased”. For the same compound, the “content of adipose droplets (oil red stain, FIGS. 2A, 2B)” value (“content of adipose droplets” for short) (adipose stem cells; BP 2 μg/mL, vs adipose cells not treated by BP) was “contained more adipose droplets”, the “adipose droplets in cells (microscope morphology, FIG. 1)” value (adipose stem cells; BP 10 μg/mL in conditional medium, vs undifferentiated adipose stem cells and differentiated adipose cells) was “contained more adipose droplets” and the “content of adipose droplets” value (adipose stem cells; BP 10 μg/mL, vs adipose cells not treated by BP and other BP groups) was “highest content of adipose droplets”. The “content of adipose droplets” value (adipose stem cells; BP 50 μg/mL, vs adipose cells not treated by BP) was “contained more adipose droplets”, the “Subcutaneous adipose tissue (weight, average)” value (C57BL/6 mice [1]; [5]) was 0.24 g and the “Visceral adipose tissue (weight, average)” value (C57BL/6 mice [1]; [5]) was 0.57 g. The “accumulation condition of white fat in visceral (appearance, FIG. 6A)” value (C57BL/6 mice [1]; vs HFD group) was “significantly alleviated”, the “weights of subcutaneous fat and visceral fat, in words” value (C57BL/6 mice [1]; vs HFD group) was “significantly lower” and the “oxygen consumption rate (FIG. 3A)” value (adipose cells; BP 2 μg/mL) was “higher oxygen consumption rate”. For the same compound, the “spare respiratory capacity (FIG. 3B)” value (adipose cells; BP 2 μg/mL) was “higher”, the “oxygen consumption rate (FIG. 3A)” value (adipose cells; BP 10 μg/mL) was “higher oxygen consumption rate” and the “spare respiratory capacity (FIG. 3B)” value (adipose cells; BP 10 μg/mL) was “higher”. For the same compound, the “oxygen consumption rate (FIG. 3A)” value (adipose cells; BP 50 μg/mL) was “higher oxygen consumption rate”, the “spare respiratory capacity (FIG. 3B)” value (adipose cells; BP 50 μg/mL) was “higher” and the “weights of mice (weight gain, 9 to 18 weeks old, FIG. 7)” value [2] was “increased significantly less”. For the same compound, the “Relative content of glucose” value (C57BL/6 mice [3]; [6]) was 85, the “Relative content of total cholesterol” value (C57BL/6 mice [3]; [6]) was 80 and the “Relative content of triglycerides” value (C57BL/6 mice [3]; [6]) was 84. The “Glucose (serum)” value (C57BL/6 mice [3]; [7]) was 411.50 ± 43.50 mg/dL, the “Total cholesterol (serum)” value (C57BL/6 mice [3]; [7]) was 157.50 ± 1.50 mg/dL and the “Triglycerides (serum)” value (C57BL/6 mice [3]; [7]) was 213.50 ± 50.50 mg/dL. The “content of glucose in blood, in words” value (C57BL/6 mice [3]; [8]) was “significantly lower”, the “content of total cholesterol in blood (FIG. 8C; printed as triglycerides), in words” value (C57BL/6 mice [3]; [8]) was “significantly lower” and the “content of triglycerides in blood, in words” value (C57BL/6 mice [3]; [8]) was “significantly lower”. For the same compound, the “cell morphology of subcutaneous and visceral adipose tissue (FIGS. 5A, 5B)” value (C57BL/6 mice [4]) was “contained the brown adipose cells with numerous small adipose droplets”.
